This is an account of results in patent US9193699B2, “Apoptosis inducing compounds” (INSTITUT NATIONAL DE LA SANTE ET DE LA RECHERCHE MEDICALE …, priority 2011, dated 2015).

Common to all, as to type: cell-based
Assay [1] relates to Human breast tumor SUM149 cells. As to the kind of experiment: Inhibition of tumor cell growth (alamar blue), SUM149. Conditions: 120 h, calculated on the basis of cell growth inhibition, day 5, alamar blue, read-out: IC50 for the inhibition of SUM149 tumor cells growth. The method, then:
(§1) All biological experiments (Examples 2 to 9) have been performed with recommended cell line specific culture medium. For SUM149 and L226, culture medium is supplemented with 10% Fetal Calf Serum. For HME-1 and MCF-10A, culture medium is supplemented with 5% Horse Serum.
Human breast tumor SUM149 cells (Inflammatory Breast Cancer (IBC) of basal subtype) were plated in a 96 well plate at 3000 cells/100 μL at 37° C. in 5% CO2. Compounds 1, 3, 4, 5, 6, 7, 8, 9, 10, 11, 12, 13, 14 at 10 μM were added at day 0 and day 3. The number of viable cells was determined in triplicate at day 5 by incubating 10 μL of the alamar blue staining solution for 2 hours at 37° C. (FIG. 1).
Human breast tumor SUM149 cells were plated in a 96 well plate at 3000 cells/100 μL at 37° C. in 5% CO2. Serial dilutions of drugs (compounds 1, 3 or 4) ranging from 20 μM to 300 nM were added at day 0 and day 3. The number of viable cells was determined in triplicate at day 5 by incubating 10 μL of the alamar blue staining solution for 2 hours at 37° C. (FIG. 2).
IC50 values of compounds 1-14 for the inhibition of SUM149 and L226 tumor cells growth were measured (according to the experimental procedure of Examples 2 and 3):
Human breast tumor SUM149 cells were plated in a 96 well plate at 3000 cells/100 μL at 37° C. in 5% CO2 in recommended medium containing 10% FCS or in synthetic medium without FCS. Serial dilutions of drug (compound 4) ranging from 10 μM to 0.16 μM were added at day 0 and day 3. The number of viable cells was determined in triplicate at day 5 by incubating 10 μL of the alamar blue staining solution for 2 hours at 37° C. (FIG. 11). The […] in recommended medium containing 10% FCS was measured at 2 μM, while it was measured at 0.6 μM without FCS.

The subject of assay [2] is Human breast tumor L226 cells. As to the kind of experiment: Inhibition of tumor cell growth (alamar blue), L226. Conditions: 120 h, calculated on the basis of cell growth inhibition, day 5, alamar blue. The method, then:
as §1
Human breast tumor L226 cells (Inflammatory Breast Cancer (IBC) of ERB-B2 subtype) were plated in a 96 well plate at 3000 cells/100 μL at 37° C. in 5% CO2. Serial dilutions of drugs (compounds 1, 3 or 4) ranging from 20 μM to 300 nM were added at day 0 and day 3. The number of viable cells was determined in triplicate at day 5 by incubating 10 μL of the alamar blue staining solution for 2 hours at 37° C. (FIG. 3).
IC50 values of compounds 1-14 for the inhibition of SUM149 and L226 tumor cells growth were measured (according to the experimental procedure of Examples 2 and 3): […]

In assay [3] the test system is Human normal mammary epithelial MCF-10A cells. Nature of the assay: Effect on growth of normal cells (alamar blue), MCF-10A. Conditions: calculated on the basis of cell growth inhibition. As to the method: as §1
Human normal mammary epithelial MCF-10A cells were plated in a 96 well plate at 3000 cells/100 μL at 37° C. in 5% CO2. Serial dilutions of drugs (compounds 1, 3 or 4) ranging from 20 μM to 300 nM were added at day 0 and day 3. The number of viable cells was determined in triplicate at day 5 by incubating 10 μL of the alamar blue staining solution for 2 hours at 37° C. (FIG. 5).
(§2) IC50 values of compounds 1-14 for the inhibition of MCF-10A and HME-1 normal cells growth were also measured (according to the experimental procedure of Examples 4 and 5): […]

Assay [4] concerns Human normal mammary epithelial HME-1 cells. Nature of the assay: Effect on growth of normal cells (alamar blue), HME-1. Conditions: HME1, calculated on the basis of cell growth inhibition. The method, then: as §1
Human normal mammary epithelial HME-1 cells were plated in a 96 well plate at 3000 cells/100 μL at 37° C. in 5% CO2. Serial dilutions of drugs (compounds 1, 3 or 4) ranging from 20 μM to 300 nM were added at day 0 and day 3. The number of viable cells was determined in triplicate at day 5 by incubating 10 μL of the alamar blue staining solution for 2 hours at 37° C. (FIG. 4).
as §2

Assay [5] has as its system caspase-3 and caspase-7 in SUM149 cells. As to the kind of experiment: Caspase 3/7 activation (Caspase-Glo 3/7) in SUM149 tumor cells. Conditions: Homo sapiens, R=RLU at 20 μM/RLU at 0 μM, 24 h, read-out: Caspase 3/7 activation R (RLU fold increase from untreated cells). As to the method:
Human breast tumor SUM149 cells were plated in a 96 well plate at 10000 cells/100 μL at 37° C. in 5% CO2. Serial dilutions of drugs (compounds 1, 3 or 4) ranging from 20 μM to 300 nM were added at day 0. Active caspase-3 and caspase-7 were measured in triplicate after 24 h treatment by incubating 50 μL of the Caspase-Glo 3/7 reagent for 60 min at 25° C. This reagent containing the proluminescent tetrapeptide sequence DEVD in a cell lysis buffer (Promega) (FIG. 6).
(§3) Caspase 3/7 activation in SUM149 and L226 tumor cells was measured.
(§4) The calculated values R correspond to Relative Luminescence Units (RLU) fold increase from untreated cells (R=RLU at 20 μM/RLU at 0 μM).

Assay [6] relates to caspase-3 and caspase-7 in L226 cells. Nature of the assay: Caspase 3/7 activation (Caspase-Glo 3/7) in L226 tumor cells. Conditions: Homo sapiens, R=RLU at 20 μM/RLU at 0 μM, 24 h, read-out: Caspase 3/7 activation R (RLU fold increase from untreated cells). As to the method:
Human breast tumor L226 cells were plated in a 96 well plate at 10000 cells/100 μL at 37° C. in 5% CO2. Serial dilutions of drugs (compounds 1, 3 or 4) ranging from 20 μM to 300 nM were added at day 0. Active caspase-3 and caspase-7 were measured in triplicate after 24 h treatment by incubating 50 μL of the Caspase-Glo 3/7 reagent for 60 min at 25° C. This reagent containing the proluminescent tetrapeptide sequence DEVD in a cell lysis buffer (Promega) (FIG. 7).
as §3, §4

The subject of assay [7] is caspase-3 and caspase-7 in MCF-10A cells. As to the kind of experiment: Caspase 3/7 activation (Caspase-Glo 3/7) in MCF-10A normal cells. Conditions: Homo sapiens, R=RLU at 20 μM/RLU at 0 μM, 24 h, read-out: Caspase 3/7 activation R (RLU fold increase from untreated cells). As to the method: Human normal mammary epithelial MCF-10A cells were plated in a 96 well plate at 10000 cells/100 μL at 37° C. in 5% CO2. Serial dilutions of drugs (compounds 1, 3 or 4) ranging from 20 μM to 300 nM were added at day 0. Active caspase-3 and caspase-7 were measured in triplicate after 24 h treatment by incubating 50 μL of the Caspase-Glo 3/7 reagent for 60 min at 25° C. This reagent containing the proluminescent tetrapeptide sequence DEVD in a cell lysis buffer (Promega) (FIG. 9).
as §4
(§5) Caspase 3/7 activation in MCF-10A and HME-1 normal cells was also measured.

The subject of assay [8] is caspase-3 and caspase-7 in HME-1 cells. As to the kind of experiment: Caspase 3/7 activation (Caspase-Glo 3/7) in HME-1 normal cells. Conditions: Homo sapiens, HME1, R=RLU at 20 μM/RLU at 0 μM, 24 h, read-out: Caspase 3/7 activation R (RLU fold increase from untreated cells). The method, then:
Human normal mammary epithelial HME-1 cells were plated in a 96 well plate at 10000 cells/100 μL at 37° C. in 5% CO2. Serial dilutions of drugs (compounds 1, 3 or 4) ranging from 20 μM to 300 nM were added at day 0. Active caspase-3 and caspase-7 were measured in triplicate after 24 h treatment by incubating 50 μL of the Caspase-Glo 3/7 reagent for 60 min at 25° C. This reagent containing the proluminescent tetrapeptide sequence DEVD in a cell lysis buffer (Promega) (FIG. 8).
as §4, §5

A further assay has as its system Cancer stem cells (CSCs). As to the kind of experiment: Aldefluor assay of cancer stem cells (ALDH+ cells), FACS. Conditions: FIG. 12B. The method, then: Cancer stem cells (CSCs) are thought to contribute to tumor initiation, maintenance, resistance to therapy, and metastasis progression. Treatment with drugs enrich in resistant CSCs. In vitro, breast CSCs express high level of aldehyde dehydrogenase-1 (ALDH1), which can be detected by using a commercial assay (CSCs are “Aldefluor” positive). Briefly, cells were incubated in Aldefluor assay buffer containing ALDH substrate (BAAA (BODIPY®—aminoacetaldehyde), 1 μmol/L per 1×10^6 cells). Negative control was done in the presence of diethylaminobenzaldehyde (DEAB), a specific ALDH inhibitor. Cells were then incubated for 40 min at 37° C. Cells were analyzed with the LSRII flow cytometer (Becton-Dickinson). PI (Propidium Iodide) exclusion was used to gate viable cells.

The term IC50 denotes the concentration that inhibits the measured activity by half. Turning to `CC1(C)SCCN(S(=O)(=O)CC(c2ccccc2)c2ccccc2)[C@H]1C(=O)NO` [Compound 9], the half-maximal inhibitory concentration (IC50) in assay [1] was 10 µM.
Regarding `CCCc1ccc(S(=O)(=O)N2CCSC(C)(C)[C@@H]2C(=O)NO)cc1` [Compound 13, (3S)—N-hydroxy-4-[(4-propylphenyl)sulfonyl]-2,2-dimethyl-3-thiomorpholine carboxamide], the IC50 in [1] is 2.5 µM; in [2], 2.5 µM; in [3], more than 20 µM; in assay [4] it was more than 20 µM. Further, the fold induction at 20 µM in assay [5] is 5.4; in assay [6], 5.8; in assay [7], 1.1; in assay [8], 1.2.
Regarding `Cc1cc(C)c(S(=O)(=O)N2CCSC(C)(C)[C@@H]2C(=O)NO)c(C)c1` [Compound 11, (3S)—N-hydroxy-4-[(2,4,6-trimethylphenyl)sulfonyl]-2,2-dimethyl-3-thiomorpholine carboxamide], the half-inhibitory concentration (IC50) was 2.5 µM in assay [1], 2.5 µM in assay [2], 20 µM in assay [3] and more than 20 µM in [4]. For the same compound, the fold induction at 20 µM in [5] worked out at 6.4; in assay [6], 8.7.
As to `CCCCCCCCCCCCc1ccc(S(=O)(=O)N2CCSC(C)(C)C2C(=O)NO)cc1` [Compound 10, (3S)—N-hydroxy-4-[(4-dodecyl)phenylsulfonyl]-2,2-di methyl-3-thiomorpholine carboxamide], the IC50 in [1] is 2.5 µM; in assay [2], 3.5 µM; in [3], 20 µM; in [4], more than 20 µM. For the same compound, the fold induction at 20 µM was found to be 5.5 in [5], 8.9 in assay [6], 1.1 in assay [7] and 0.8 in assay [8].
As for `CC1(C)SCCN(S(=O)(=O)c2ccc(F)cc2)[C@H]1C(=O)NO` [Compound 7, (3S)—N-hydroxy-4-[(4-fluorophenyl)sulfonyl]-2,2-dimethyl-3-thiomorpholine carboxamide], the concentration for half-maximal inhibition (IC50) in [1] is 20 µM.
Turning to `Cc1cc(C)cc(S(=O)(=O)N2CCSC(C)(C)[C@@H]2C(=O)NO)c1` [Compound 14, (3S)—N-hydroxy-4-[(3,5-dimethylphenyl)sulfonyl]-2,2-dimethyl-3-thiomorpholine carboxamide], the IC50 in [1] is 5 µM. Besides, the fold induction at 20 µM in assay [7] and in assay [8] was 1.1 each time.
Turning to `CC1(C)SCCN(S(=O)(=O)c2ccc(CBr)cc2)[C@H]1C(=O)NO` [Compound 5, (3S)—N-hydroxy-4-[(4-bromomethylphenyl)sulfonyl]-2,2-dimethyl-3-thiomorpholine carboxamide], the concentration for half-maximal inhibition (IC50) in assay [1] is 2.5 µM; in [2] it was 20 µM; in assay [3], more than 20 µM; in [4], more than 20 µM. The fold induction at 20 µM is 5.5 in assay [5], 3.2 in [6], 1 in [7] and 1.1 in assay [8].
On to `CC1(C)SCCN(S(=O)(=O)c2ccc(C(F)(F)F)cc2)[C@H]1C(=O)NO` [Compound 6, (3S)—N-hydroxy-4-[(4-trifluoromethylphenyl)sulfonyl]-2,2-dimethyl-3-thiomorpholine carboxamide], for which the IC50 in assay [1] is 2.5 µM; in assay [2], 5 µM; in assay [3], more than 20 µM; in [4] it was more than 20 µM. In addition, the fold induction at 20 µM in assay [5] was determined as 5.9; in assay [6], 2.8; in [7], 1; in assay [8], 0.9.
As for `CC1(C)SCCN(S(=O)(=O)c2ccccc2)[C@H]1C(=O)NO` [Compound 1, (3S)—N-hydroxy-4-(benzenesulfonyl)-2,2-dimethyl-3-thiomorpholine carboxamide], the IC50 in assay [1] was 20 µM; in assay [2] it was more than 20 µM; in assay [3], more than 20 µM; in assay [4], more than 20 µM. Also, the fold induction at 20 µM in assay [5], in [6], in assay [7] and in assay [8] was 1 throughout.
In the case of `COc1cccc2c1C(=O)c1c(O)c3c(c(O)c1C2=O)C[C@@](O)(C(=O)CO)C[C@@H]3O[C@H]1C[C@H](N)[C@H](O)[C@H](C)O1` [doxorubicin, reference compound], the “aldefluor ratio (percent ALDH+ cells treated vs DMSO)” value in the assay with Cancer stem cells (CSCs) is given as “increases it”.
